Data set [1] has as its system blood sugar (hypoglycemic effect). Kind of data set: Test 1-D: intravenous rabbit bioassay. It counts as in vivo, white rabbits. The following applies: rabbits, 4 I.U. i.v.; after completion of the infusion. The procedure:
FIG. 8 is a comparison of Tong-Shin insulin, the oral insulin of Example 1, and Novo insulin, pursuant to the test of Test 1-D.
In this test, the oral insulin composition of Example 1 was compared with Novo monocomponent porcine crystalline insulin and a regular injectable insulin-40 (Tong-Shin Pharmaceutical Co.) in intravenous rabbit bioassays. Three white rabbits, each weighing 1.8 Kg were fasted overnight and were treated with an intravenous infusion over ten minutes of 4 I.U. of either the Novo insulin, the Tong-Shin insulin-40, or an emulsion comprising the oral insulin composition of Example 1. A venous blood sample was collected from the ear vein of each of the rabbits at 30 minutes prior to the insulin infusion and at times 0, 15, 30, 45, 60, 75, 90 and 105 minutes after completion of the infusions.

A further data set relates to venous serum sugar level. Kind of data set: Test 1-C: bioassay in pigs, serum sugar level. It counts as in vivo, Yorkshire pigs. Conditions: 8 I.U. intravenously. From the text:
FIG. 7 is a comparison of the venous serum sugar levels of two pigs, one given the composition of Example 1 and one given Actrapid. The venous serum sugar level of the pig given Example 1 is denoted by "o" and the venous serum sugar level of the pig given actrapid is denoted by "x". The x axis is in minutes and the y axis is in millimoles of serum glucose.
In this test, the oral insulin composition of Example 1 was compared with Actripid intravenous insulin solution (Novo) in a bioassay. Two Yorkshire pigs were fasted overnight and one pig was given 8 I.U. of the Actripid insulin intravenously. The other pig was given an intravenous infusion over a period of 15 minutes of 8 I.U. of the oral insulin composition of Example 1 that had been dissolved into 50 ml of water. Blood was taken from the pair of pigs and the serum sugar levels were measured. […] (See FIG. 7.)

The next data set has as its system plasma glucose level. Kind of data set: Test 12B: plasma glucose in a female dog. It counts as in vivo. As to the method: Hypoglycemic action of the formulation was compared to that of intra-duodenally administered regular injectable insulin (novo actrapid insulin, 1.0 IU per Kg) and of intravenously administered regular injectable insulin (novo actrapid insulin, 0.5 IU per Kg). After infusion of 1.26 IU of regular injectable insulin, intravenously, the plasma glucose level dropped from […] within 20 minutes and returned to […] within 3 hours. Then, 6 IU of regular injectable insulin was intra-duodenally given.

The next data set relates to blood glucose levels. Kind of data set: Test 1-E: oral insulin in healthy male volunteers, blood glucose. It counts as in vivo, human. As to the method: In this test, the oral insulin composition of Example 1 was administered orally to two healthy male volunteers.
Two healthy volunteers, weighing 52 and 54 Kg participated in the study. Each subject received a 16 I.U. dose of the oral insulin composition of Example 1 during the study. Along with the oral insulin composition of Example 1, each participant received two capsules of lipolytic enzymes. Each capsule consisted of:
The enzyme capsules were made as follows: Pancreatic Lipase was coated with 0.1 to 0.3 microns thick coating of hydroxypropylecellulose and enteric coated with the coating of Example 1. Amylase and Protease were then added. The resultant composition was then coated with 0.1 micron of hydroxypropylcellulose. Bile Salts that had been coated with 0.1 micron of hydroxypropylcellulose was then added to a hard gel capsule with the Pancreatic Lipase resultant product.
At 7:30 am on the day of the trial, each participant consumed a standard breakfast consisting of two fried eggs, two strips of bacon, two slices of toasted dark bread, a tablespoon of butter, and cup of black coffee. The insulin composition of Example 1 was administered orally at 10:00 am to both subjects. The oral insulin was administered in capsules comprising 16 I.U. of Novo crystalline monocomponent porcine insulin. At 12:00 both subjects consumed a standard lunch consisting of 180 gm of beef steak, a tossed green salad with oil and vinegar dressing, a piece of dark bread, and black coffee.
Blood samples were collected from the subject at 10:00, 13:00 and 16:00 and were analyzed for blood glucose levels.
One week later, both volunteers had the standard breakfast (i.e., the breakfast given on the first day of the test) at the same time. At 10:00 both subjects received a subcutaneous injection of 16 I.U. of Tong-Shin regular injectable insulin-40. At approximately 10:30 both subjects began to experience hypoglycemic reactions which lasted for roughly two hours. Both subjects were served pure orange juice at 11:20 and were served the standard lunch at 12:00.

A further data set deals with serum glucose. Kind of data set: Test 5-A: hypoglycemic effects (serum glucose). It counts as in vivo, human. As to the method: (§1) The bioavailability of insulin and its corresponding hypoglycemic effects of Example 4 and Example 5 oral insulin preparations were studied in a group of IDDM and NIDDM patients. Example 4 oral insulin was also studied in two normal, healthy male volunteers. In all of the tests set forth in 5-A, the subjects received with each dose of oral insulin two capsules of the lipolytic enzyme of Test 1-E.
(§2) At least 12 or 24 hours prior to the study the patients normal anti-diabetic therapeutic agents were withheld from the patients. After overnight fasting and fasting throughout the entire period of the study, Example 4 or Example 5 oral insulin preparations were orally administered.
(§3) A venous sampling catheter was placed into a vein, usually at the antecubital vein, and blood samples were drawn at time 0, 1.0, 1.5, 2.0, 2.5, 3.0, 4.0 and/or 5.0 hours after the drug administration. Serum glucose was measured on a Gilfordx400, and serum insulin was analyzed by using an Immuno-Enzymatic o-Phenylendiamine (OPD) method and Insulin-B test kit of WAKO (Japan). All measurements were made in duplicate.
(§4) As stated above, two healthy male volunteers […] participated in the study. One subject received the oral insulin of Example 4 twice over a two week period, once each week, receiving 0.20 and 0.27 IU per Kg of the oral insulin. […] Serum insulin level was peaked to 20 micro-U per ml occurring at 1.5 hours after the drug ingestion on both occasions.
The second volunteer received 10 IU of regular injectable insulin-40 (of Tong Shin Pharm. Co. of Seoul, Korea), subcutaneously. […] They were given a glass of fresh orange juice and serum glucose level rose to about 115 mg/dl within one hour.
(§5) Five IDDM Patients have completed all three phases of the study of test 5-A: i.e., they received 10 IU, subcutaneous injection of regular injectable insulin-40 (of Tong Shin Pharm Co. of Seoul, Korea) the first week; they received one single oral dosing of Example 4 (0.544 IU/kg average dose) one week later; and the next week they received 9 consecutive dosings of Example 4 (average dose was 0.544 IU/kg), given at 6-hour intervals.
The Oral Insulin Example 4 was given to a total of 8 IDDM patients (10 trials) (two repeated the study) and 7 NIDDM patients (11 trials) (four patients repeated the study).
Seven IDDM Patients completed the study after oral administration of a single dose of the Example 5 oral insulin preparation.

A short description of data set [2]: Test 5-A: bioavailability of insulin (serum insulin). It counts as in vivo, human. The following applies: Regular Insulin 0.172 IU/Kg s.c.; Example 4 0.544 IU/Kg oral 1st dose; Example 5 0.649 IU/Kg oral 1st, fasting. The procedure: as §1, §2, §3, §4, §5
The test system of the next data set is serum glucose levels. Kind of data set: Test 8: serum glucose in IDDM patients. Conditions: Regular Insulin 0.172 IU/Kg s.c., Oral Insulin 0.649 IU/Kg. It counts as in vivo, human. An excerpt:
Seven Insulin-Dependent Diabetics (IDDM) patients, 6 males and one person, between 24 to 47 years old (average 34.4) weighing between 48 and 68 Kg each (average 58.6 kg) took between 32 to 48 (average 42.6) International Units of Oral Insulin Formulation of Example 7, orally, after fasting overnight and fasting throughout the study.
(§6) Each subject in Test 8 was given two capsules of the lipolytic enzyme composition set forth in Test 1-E with each dose of oral insulin.

The nature of data set [3]: Test 8: bioavailability of insulin (insulin levels in serum). It counts as in vivo, human. The following applies: Reg. Insulin 0.172 IU/Kg s.c.; Oral Insulin 0.630 IU/Kg; IDDM. As to the method:
In two IDDM patients, bioavailability of insulin (insulin levels in serum) was measured after oral administration of Oral Insulin Formulation of Example 7 (0.63 I.U./Kg).
Compared to 0.172 IU/Kg of Regular Insulin, subcutaneous injection in 5 IDDM patients, the `pharmacokinetic and bioavailability` of insulin are as follows:
as §6

In data set [4] the test system is hypoglycemic response. The following applies: aerosol, 2.5 U/Kg, rabbits; cited from earlier work.
For data set [5] the following is noted: buccal, cocoa fat base and surfactant, dogs; cited from earlier work.
The conditions of data set [6]: intra-nasal, dogs; cited from earlier work.
In data set [7] the test system is hypoglycemic effect. The following applies: oral with isopropylfruorophosphate and indole-3-acetate, rats; cited from earlier work.
The subject of data set [8] is hypoglycemic response. Conditions: oral with pancreas inactivating agents; cited from earlier work.
The next data set relates to blood sugar level. Conditions: oral with surfactants; cited from earlier work.
In data set [9] the test system is hypoglycemic effect. The following applies: water/oil/water emulsion, rats; cited from earlier work.
For data set [10] the following is noted: cited from earlier work.
For data set [11], the system named is hypoglycemic effect. The following applies: other emulsion systems with fat soluble vitamins, dogs; cited from earlier work.
The test system of data set [12] is hypoglycemic response. The following applies: oral, 150 IU/Kg, rabbits; cited from earlier work.
The mark [13] stands for this setting: Regular Insulin 0.172 IU/Kg s.c., Example 4 0.544 IU/Kg oral 1st dose, Example 5 0.649 IU/Kg oral 1st, fasting.

Where two headings read alike, the source gives them in different places.

“Novo insulin: Novo monocomponent porcine crystalline insulin”: in [1], the “time of peak hypoglycemic effect” value is at most 30 min.
Regarding “Actripid insulin: intravenous insulin solution (Novo)”, the “decrease of venous serum sugar level, compared between the two insulins” value in the data set on venous serum sugar level is on record as “decreased by roughly an equal degree”. This substance also registered a plasma glucose level before infusion in the data set with plasma glucose level (1.26 IU intravenous) of 102 mg/dL. In the data set with plasma glucose level (1.26 IU intravenous, within 3 hours), this substance registered a plasma glucose level, return of 100 mg/dL. In addition, in the data set on plasma glucose level (6 IU intra-duodenal, over three hours), the “change of blood glucose level” value is recorded as “No changes in the blood glucose levels”.
In the case of Regular Insulin, the “time of peak hypoglycemic effect” value in [1] was found to be 60 min. In addition, in the data set with blood glucose levels (16 I.U. subcutaneous), the “duration of hypoglycemic reactions” value is on record as “roughly two” and the “time of peak hypoglycemic effect” value is listed as “roughly 3 hours”. Besides, the “blood glucose / effect after six hours” value in the data set on blood glucose levels (16 I.U., 6 hours) was “the effect disappeared by 6 hours after administration”. Also, in the data set with serum glucose (setting [13]), the “CO, base value of Serum Glucose” value turned out to be 271 mg/dL; the “Cmin, minimum value of glucose” value stood at 94.5 mg/dL; the “T100, time to reach 100 mg/dl of serum glucose” value came to 2.1; the “TC-min, time of observing the minimum glucose level” value stood at 4.0. In the data set with serum glucose (setting [13]), the “dC/dT, rate of reduction in Serum Glucose levels” value came out at 59.16. The “time of insulin-induced shock symptoms” value with serum glucose (healthy volunteer, 10 IU subcutaneous) amounted to 72 min. In the data set with serum glucose (healthy volunteer, 10 IU subcutaneous, 72 minutes), the “serum glucose at time of shock symptoms” value stood at 47 mg/dL. Moreover, the “serum glucose after orange juice” value with serum glucose (healthy volunteer, 10 IU subcutaneous, within one hour of orange juice) was “about 115 mg/dl”. Further, in data set [2], the “IO, base value of Serum Insulin” value is listed as 8.0 micro-U/ml; the “Imax, maximum value of insulin” value stood at 20.3 micro-U/ml; the “TI-O, time to reach the base value of Serum Insulin level” value is listed as 4.8; the “TI-max, time to reach the maximum Serum insulin level” value was determined as 1.5. Moreover, the “dI/dT, rate of rise of serum insulin level” value in data set [2] was determined as 38.29. Also, in the data set on serum glucose levels, the “CO (printed 00), base value of glucose” value was 271 Mg/dl; the “Cmin, minimum value of glucose observed” value was determined as 94.5 Mg/dl; the “T100, time to reach 100 mg/dl” value was 2.1; the “TC-min, time of observing the minimum glucose level” value is 4.0. Besides, the “dC/dT, rate of hypoglycemic action” value in the data set on serum glucose levels is on record as 59.16. In addition, in [3], the “IO, base value of insulin” value was determined as 8.0 micro-U/ml; the “Imax, maximum value of serum insulin” value is on record as 20.3 micro-U/ml; the “TI-O, time to reach the base value of serum insulin” value turned out to be 4.8; the “TI-max, time of observing the maximum value of serum insulin” value stood at 1.5. Also, the “dI/dt, rate of rise of serum insulin (absorption rate)” value in data set [3] amounted to 38.29.
Take insulin: the hypoglycemic response result in the data set with hypoglycemic response [4] was “induced hypoglycemic response”. Besides, the bioavailability result is “only poor bioavailability” in data set [5] and “high bioavailability” in data set [6]. In addition, the hypoglycemic effect result with hypoglycemic effect [7] is on record as “induce a hypoglycemic effect”. Further, in the data set with hypoglycemic response [8], the “bioavailability equivalent of hypoglycemic response” value is given as 3%. For the same substance, the “intravenous dose with effect on blood sugar equivalent to 35 units orally” value in the data set with blood sugar level was 4 units. In addition, the “intramuscular dose with effect equivalent to 250 IU/Kg orally” value in the data set with hypoglycemic effect [9] was 10 IU/Kg. For the same substance, the “bioactivity after oral administration” value in data set [10] was “low bioactivities”. In the data set with hypoglycemic effect [11], the hypoglycemic effects entry was “mild and not dose responsive”.
In the case of beta-Naphthyl-azo-Polystearryle-insulin, in the data set on hypoglycemic response [12], the hypoglycemic response entry was “induced a hypoglycemic response”.

Source of the values: patent US4849227A, “Pharmaceutical compositions” (Eurasiam Laboratories, Inc., priority 1987, dated 1989).
